Laboratory results published in patent US9969775B2, “CGRP antagonist peptides” (Ferring B.V., priority 2015, dated 2018).
Numbered stars: 1 amine (or outer) side, 2 acyl side, 3 side chain; on linkers, the order of the positions; unused ones are H or OH. Bridge positions count the residues as written; N and C are the ends. Square brackets hold non-standard residues; d marks the D form. Peptide text beside a SMILES is read from it. * marks the point of attachment. X5 = O=C([C@H](Cc1ccc(CO)cc1)N[*:1])[*:2]; Picolinoyl(5-F) = O=C(c1ccc(F)cn1)*; Lys(Me2) = CN(C)CCCC[C@H](N)C(=O)O; Orn(iPr) = CC(C)NCCC[C@H](N)C(=O)O; Oxazole2carbonyl = O=C(c1ncco1)*; 3Pal = N[C@@H](Cc1cccnc1)C(=O)O; Orn = NCCC[C@H](N)C(=O)O; X9 = Nc1cccnc1C(=O)*

Key:
[1] = biological target: T1, hCGRP receptor (CALCRL:RAMP1) (Homo sapiens, UniProt O60894+Q16602); assay: CGRP receptor antagonist activity measured by cAMP assay (HTRF); type: cell-based; details: agonist human α-CGRP; for Emax: % MPE: percent of the maximal possible effect, read-out: hCGRP-R Efficacy Antag (%) Ave; for IC50: GeneBLAzer CALCRL:RAMP1-CRE-bla Freestyle 293F cells, 30 minutes, read-out: hCGRP-R IC50 Ave
T1 construct: host or cells: GeneBLAzer CALCRL:RAMP1-CRE-bla Freestyle 293F
T1 sequence (Q16602 23-461): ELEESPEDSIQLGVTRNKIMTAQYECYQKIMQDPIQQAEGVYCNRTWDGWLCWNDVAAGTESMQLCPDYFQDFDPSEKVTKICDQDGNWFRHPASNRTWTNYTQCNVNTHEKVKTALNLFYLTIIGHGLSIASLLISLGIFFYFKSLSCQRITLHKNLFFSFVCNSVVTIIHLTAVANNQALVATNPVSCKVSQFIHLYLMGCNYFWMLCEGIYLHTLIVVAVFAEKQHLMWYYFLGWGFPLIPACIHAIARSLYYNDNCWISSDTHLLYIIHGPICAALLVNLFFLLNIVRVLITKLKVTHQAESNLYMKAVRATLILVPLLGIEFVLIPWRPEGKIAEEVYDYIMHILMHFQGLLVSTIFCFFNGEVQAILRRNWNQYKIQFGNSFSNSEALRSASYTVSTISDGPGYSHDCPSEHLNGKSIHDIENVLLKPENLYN
T1 sequence (O60894 27-148): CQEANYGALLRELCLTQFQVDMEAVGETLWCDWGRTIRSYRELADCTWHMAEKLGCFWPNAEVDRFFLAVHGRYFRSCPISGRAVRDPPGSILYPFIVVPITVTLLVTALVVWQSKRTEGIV

[2] = biological target: T2, hAM2 receptor (CALCRL:RAMP3) (Homo sapiens, UniProt O60896+Q16602); assay: AM2 receptor antagonist activity measured by cAMP assay (HTRF); type: cell-based; details: for Emax: % MPE: percent of the maximal possible effect, read-out: hAM2-R Efficacy Antag (%) Ave; for Emax / IC50: agonist human adrenomedullin; for IC50: GeneBLAzer CALCRL:RAMP3-CRE-bla Freestyle 293F cells, read-out: hAM2-R IC50 Ave; for selectivity ratio CGRP/AM2: selectivity ratio for hCGRP over hAM2, calculated from the IC50 values
T2 construct: expressed in transfected cells; host or cells: GeneBLAzer CALCRL:RAMP3-CRE-bla Freestyle 293F
T2 sequence (Q16602 23-461): as the sequence (Q16602 23-461) above
T2 sequence (O60896 24-148): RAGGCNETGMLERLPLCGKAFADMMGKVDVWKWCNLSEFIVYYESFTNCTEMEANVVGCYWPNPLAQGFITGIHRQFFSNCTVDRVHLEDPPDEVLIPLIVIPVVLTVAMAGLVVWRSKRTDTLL

Row | Emax [1] [%] | IC50 [1] [nM] | Emax [2] [%] | IC50 [2] [nM] | selectivity ratio CGRP/AM2 [2] | SMILES
1 | 100 | 0.1 | 100 | 89 | 934 | CC(C)NCCC[C@@H]1NC(=O)[C@@H](NC(=O)[C@H](Cc2ccc(O)cc2)NC(=O)[C@H](NC(=O)c2ccc(F)cn2)C(C)C)CSSC[C@@H](C(=O)N[C@@H](Cc2cccnc2)C(N)=O)NC(=O)[C@H](Cc2ccc(CO)cc2)NC(=O)[C@@H]2CCCN2C(=O)CNC(=O)[C@H](C(C)C)NC(=O)[C@H](CC(=O)O)NC1=O [Compound 61, Picolinoyl(5-F)-D-Val-Tyr-c(Cys-Orn(iPr)-Asp-Val-Gly-Pro-Phe(4-CH2OH)-Cys)-3Pal-NH2] ({Picolinoyl(5-F)}-[dV]YC[Orn(iPr)]DVGP[X5]C[3Pal]-NH2; disulfide 3-10)
2 | 100 | 0.17 | 100 | 114 | 668 | CC(C)[C@@H]1NC(=O)[C@H](CC(=O)O)NC(=O)[C@H](CCCNC(=O)[C@@H](N)CCCCN(C)C)NC(=O)[C@@H](NC(=O)[C@H](Cc2ccc(O)cc2)NC(=O)[C@H](NC(=O)c2ncco2)C(C)C)CSSC[C@@H](C(=O)N[C@@H](Cc2cccnc2)C(N)=O)NC(=O)[C@H](Cc2ccccc2)NC(=O)[C@@H]2CCCN2C(=O)CNC1=O [Compound 44, Oxazole-2-carbonyl-D-Val-Tyr-c(Cys-Orn(Lys(Me2))-Asp-Val-Gly-Pro-Phe-Cys)-3Pal-NH2] (Oxazole2carbonyl-[dV]YC[Orn](Lys(Me2))DVGPFC[3Pal]-NH2; disulfide 3-10)
3 | 100 | 0.17 | 101 | 16 | 93 | CC(C)[C@@H]1NC(=O)[C@H](CC(=O)O)NC(=O)[C@H](CCCNC(=N)N)NC(=O)[C@@H](NC(=O)[C@H](Cc2ccc(O)cc2)NC(=O)[C@H](NC(=O)c2ncccc2N)C(C)C)CSSC[C@@H](C(=O)N[C@@H](Cc2cccnc2)C(N)=O)NC(=O)[C@H](Cc2ccccc2)NC(=O)[C@@H]2CCCN2C(=O)CNC1=O [Compound 36] (X9-[dV]YCRDVGPFC[3Pal]-NH2; disulfide 3-10)
